# Laboratory results as given in article PMC11513854, “De novo GTP synthesis is a metabolic vulnerability for the interception of brain metastases” (Cell Reports Medicine, 2024).
# Columns and labels:
# IMPDH KO BT478 cells = test: Dose-response assays using AAVS1 and IMPDH KO cells; assay type: cell-based, human; details: IMPDH1 and IMPDH2 knocked out
# Text: In parallel, we knocked out the safe-harbor locus, AAVS1, as a control cell line. Knockouts were validated by western blot (Figures 5E and S4D). Loss of IMPDH led to tumor cell death within 1 week of knockout (Figure 5F).
# Guide RNAs (gRNAs) targeting AAVS1 (5′-[…]-3′) and IMPDH1 (5′- […]-3′) and IMPDH2 (5′-a[…]-3′) were obtained from TKOv3[76] and cloned into a single-gRNA lentiCRISPRv2 construct (Addgene 52961). Sequences were verified using Sanger sequencing. Each plasmid was packaged independently into lentivirus using second-generation packaging constructs as described previously.[77] BMICs were infected with lentivirus containing single-gRNA lentiCRISPRv2 constructs targeting AAVS1 or IMPDH1 or IMPDH2 (three gRNAs). Twenty-four hours post-infection, virus-containing media was replaced with fresh media containing puromycin (1–2 μg/mL) (ThermoFisher, Cat#A1113803) for 48–72 h. The knockout efficiency was validated by Western Blotting for evaluation of IMPDH protein expression.
# [1] = system: de novo GTP synthesis pathway; test: LC-MS metabolomics profiling; assay type: cell-based, human; details: IC80, 6 h; for GDP and GTP levels: BT478, BT530; for AICAR levels: b56: accumulates in only some conditions
# Procedure: Metabolites were extracted with a solution of cold acetonitrile/methanol/water (2:2:1) from the cell pellets and protein precipitation was performed by three cycles of freeze/thawing and sonication. The LC-MS metabolomics analysis was performed as previously described.[75] Briefly, a UHPLC-MS system consisting of an Agilent 6550 qToF coupled to an Agilent 1290 binary pump UHPLC system was used. The source parameters were as follows: Gas temperature, 150 °C at 14 L/min and 45 psig; Sheath gas temperature, 325 °C at 12 L/min; Capillary and nozzle voltages were set to −2.0 kV iFunnel conditions were changed from default to-30 V DC, High pressure funnel drop −100 V and RF voltage of 110 V, low pressure funnel drop −50 V and RF voltage of 60 V. Chromatographic separation was achieved by ion-paired chromatography. In brief, […] of each sample was injected onto Agilent ZORBAX Extend-C18 (150 mm 3 2.1 mm i.d.; 1.8 mm) column using tributylamine (TBA) as an ion paring agent (solvent A: 3% methanol, 97% water 10 mM TBA, 15 mM Acetic acid, solvent B: 100% methanol). The linear gradient employed was as follows: 0–2.5 min 99% A, 2.5–7.5 min decrease to 80% A, 7.5–13 min to 55% B and finally 13–15 min to 99% B and held for 1 min. The column was re-generated for 2 min at 1% B. The flow rate was set to […]. The column temperature was maintained at 25°C. Skyline was used for data processing of metabolites in our library of standards using known retention times and MS/MS spectra. Integrated peak areas for the metabolites was exported for further statistical and metabolite enrichment analysis by using online MetaboAnalyst (https://www.metaboanalyst.ca/).
# MDR1-MDCKII cells = test: Bi-directional permeability via MDR1-MDCKII cells; assay type: in vitro ADME
# Procedure: (§1) MDR1-MDCKII permeability assays were performed by Wuxi AppTec Co. Briefly, MDR1-MDCK1 cells were seeded onto polycarbonate membranes in 96-well insert system plates and allowed to develop into monolayers. […] The plate was incubated for 2.5 h (37°C, 5% CO2) and the media was sampled on either side and the compound present was quantified by LC-MS/MS and the concentrations were used to calculate the efflux ratio. Digoxin (10 μM), nadolol (2 μM), and metoprolol (2 μM) were used as controls.
# MDR1 = test: Bi-directional permeability via MDR1-MDCKII cells; assay type: in vitro ADME; details: dog, MDCK-MDR1, pH 7.4; 2 μM (digoxin 10 μM), 2.5 h
# Procedure: as §1
# [2] = Brain homogenate binding, equilibrium dialysis; assay type: in vitro ADME, mouse; details: 2 μM, 4 h, 37°C
# Procedure: The samples were applied to a dialysis well plate and sealed with dialysis membrane. Dialysis buffer (100 mM sodium phosphate pH 7.4, 150 mM NaCl) was applied to opposite side of the membrane (receiver well of the plate), and samples were incubated at 37°C with 5% CO2 for 4 h. Following completion of incubation period, samples were recovered from each side of the dialysis membrane and processed by protein precipitation, and analysis by LC-MS/MS for compound concentration. A corresponding set of samples was also prepared and stop solution (acetonitrile containing 200 ng/mL tolbutamide and 200 ng/mL labetalol) was immediately added, and samples were obtained from each side of the dialysis plate for mass spectrometric analysis.
# [3] = system: BT478 and BT530 tumor cells; test: Dose-response with exogenous guanine supplementation; assay type: cell-based, human; details: guanine 12 μM in culture media
# Text: Created with BioRender.com. […] Comparisons were made via a two-tailed unpaired t test, n = 4 technical replicates, p value is indicated. N.s., not significant, ∗∗∗∗ = p < 0.0001. […] Comparisons were made via a two-tailed unpaired t test, n = 4 technical replicates. N.s., not significant. […] Data are presented as mean ± SD from 4 technical replicates. (E) Immunoblot confirmation of IMPDH (IMPDH1 + IMPDH2) knockout (KO) in patient-derived lung-BMICs. Cropped from single full blot. (F) Time-course proliferation assays of AAVS1 and IMPDH KO BT478 and BT530 cells. Comparisons were made via a two-tailed unpaired t test. Data are presented as mean ± SD from 4 technical replicates, ∗∗∗∗ = p < 0.0001. (G) Representative bar graphs depicting the sphere count per 200 cells of AAVS1 vs. IMPDH KO cells. Comparisons were made via a two-tailed unpaired t test, data are presented as mean ± SD from 4 technical replicates, ∗∗∗∗ = p < 0.0001. (H) Kaplan-Meier curves showing the overall survival probability (from primary cancer diagnosis to death) in a cohort of 30 patients with lung carcinoma who developed BM, for IMPDH2 very high vs. very low expression (1st and 3rd quartiles cutoff values: <114.86 and >210.74). The Cox regression model for survival analysis was used, p values (p) are shown. […]
SMILES,anti-BMIC activity following IMPDH knockout (IMPDH KO BT478 cells),GDP and GTP levels [1],levels of dihydroorotic acid [1],AICAR levels [1],substrate for P-glycoprotein (ABCB1) (MDR1-MDCKII cells; MDCK-MDR1 cell monolayer model),"Papp A→B at 2.5 h, 2 μM (MDR1) [×10⁻⁶ cm/s]","Papp B→A at 2.5 h, 2 μM (MDR1) [×10⁻⁶ cm/s]",% Unbound [2],BMIC viability with exogenous guanine supplementation [3],Rank of Papp (MDR1-MDCKII cells),permeability for entering the brain (MDR1-MDCKII cells; MDCK-MDR1 cell monolayer model),"efflux ratio at 2.5 h, 2 μM (MDR1)",% Bound [2],mass of compound following completion of the brain homogenate assay [2]
"COc1c(C)c2c(c(O)c1C/C=C(\C)CCC(=O)O)C(=O)OC2 [MPA, Mycophenolic acid]",lose their anti-BMIC activity,significantly reduced,did not influence,accumulate,not significant substrates,26,10,34.1%,rescued BMIC viability,,,,,
COc1c(C)c2c(c(O)c1C/C=C(\C)CCC(=O)OCCN1CCCC1)C(=O)OC2 [Compound 3],lose their anti-BMIC activity,significantly reduced,did not influence,accumulate,not significant substrates,14.8,12.5,Not Recover ed,rescued BMIC viability,High,high permeability,0.848,Not Recover ed,could not be detected
